As a reminder, the CC50 is the concentration giving 50% cytotoxicity.

The nature of data set [1]: Cell viability assay (AlamarBlue). The class given is cell-based. The following applies: human, HepAD38 cells in the presence of 0.3 μg/ml tetracycline, six days incubation. The procedure:
Using the AlamarBlue viability assay cytotoxicity was evaluated in HepAD38 cells in the presence of 0.3 μg/ml tetracycline, which blocks the expression of the HBV genome. Assay condition and plate layout were in analogy to the anti-HBV assay, however other controls were used. On each assay plate six wells containing untreated HepAD38 cells were used as the 100% viability control, and six wells filled with assay medium only were used as 0% viability control. In addition, a geometric concentration series of cycloheximide starting at 60 μM final assay concentration was used as positive control in each experiment. After six days incubation period Alamar Blue Presto cell viability reagent (ThermoFisher, Dreieich) was added in 1/11 dilution to each well of the assay plate. After an incubation for 30 to 45 min at 37° C. the fluorescence signal, which is proportional to the number of living cells, was read using a Tecan Spectrafluor Plus plate reader with an excitation filter 550 nm and emission filter 595 nm, respectively. […] Mean EC50 and CC50 values were used to calculate the selectivity index (SI=CC50/EC50) for each test compound.

A further data set relates to HBV. The experiment in a line: Determination of HBV DNA from the supernatants of HepAD38 cells (anti-HBV activity). The settings on record: Hepatitis B virus, HePAD38, 144 h, read-out: Cell Activity.

Take `COCC1(N(C)C(=O)c2cnn3c2CN(C(=O)Nc2ccc(F)c(Cl)c2)C(C)C3)CC1` (stereo not shown) [Example 1, N5-(3-chloro-4-fluorophenyl)-N3-[1-(methoxymethyl)cyclopropyl]-N3,6-dimethyl-4H,5H,6H,7H-pyrazolo[1,5-a]pyrazine-3,5-dicarboxamide]: in data set [1], the CC50 at 6 days is greater than 10 µM. Besides, the EC50 in the data set on HBV is less than 1 µM.

For `CC(C)OCC1(N(C)C(=O)c2cnn3c2CN(C(=O)Nc2ccc(F)c(Cl)c2)CC3)CC1` [Example 2, N5-(3-chloro-4-fluorophenyl)-N3-methyl-N3-{1-[(propan-2-yloxy)methyl]cyclopropyl}-4H,5H,6H,7H-pyrazolo[1,5-a]pyrazine-3,5-dicarboxamide], the CC50 at 6 days in data set [1] is greater than 10 µM. The EC50 with HBV is less than 1 µM.

Turning to `CCOCC1(N(C)C(=O)c2cnn3c2CN(C(=O)Nc2ccc(F)c(Cl)c2)CC3)CC1` [Example 3, N5-(3-chloro-4-fluorophenyl)-N3-[1-(ethoxymethyl)cyclopropyl]-N3-methyl-4H,5H,6H,7H-pyrazolo[1,5-a]pyrazine-3,5-dicarboxamide], in data set [1], the CC50 at 6 days was greater than 10 µM. Besides, the EC50 in the data set on HBV was less than 1 µM.

With `CN(C(=O)c1cnn2c1CN(C(=O)Nc1ccc(F)c(Cl)c1)CC2)C1(COC(F)F)CC1` [Example 4, N5-(3-chloro-4-fluorophenyl)-N3-{1-[(difluoromethoxy)methyl]cyclopropyl}-N3-methyl-4H,5H,6H,7H-pyrazolo[1,5-a]pyrazine-3,5-dicarboxamide], the CC50 at 6 days in data set [1] was greater than 10 µM. The EC50 in the data set on HBV is less than 1 µM.

With `O=C(Nc1ccc(F)c(Cl)c1)N1CCn2ncc(C(=O)N3CC(F)(F)CC34CC4)c2C1` [Example 5, N-(3-chloro-4-fluorophenyl)-3-{6,6-difluoro-4-azaspiro[2.4]heptane-4-carbonyl}-4H,5H,6H,7H-pyrazolo[1,5-a]pyrazine-5-carboxamide], the CC50 at 6 days in data set [1] is greater than 10 µM. In addition, the EC50 in the data set with HBV is less than 1 µM.

For the compound `CC1Cn2ncc(C(=O)N(C)C3(COC(F)F)CC3)c2CN1C(=O)Nc1ccc(F)c(Cl)c1` (stereo not shown) [Example 6, N5-(3-chloro-4-fluorophenyl)-N3-{1-[(difluoromethoxy)methyl]cyclopropyl}-N3,6-dimethyl-4H,5H,6H,7H-pyrazolo[1,5-a]pyrazine-3,5-dicarboxamide], the CC50 at 6 days in data set [1] was greater than 10 µM. Besides, the EC50 in the data set with HBV was less than 1 µM.

On to `CN(C(=O)c1cnn2c1CN(C(=O)Nc1ccc(F)c(Cl)c1)CC2)C1(c2ccncc2)CC1` [Example 7, N5-(3-chloro-4-fluorophenyl)-N3-methyl-N3-[1-(pyridin-4-yl)cyclopropyl]-4H,5H,6H,7H-pyrazolo[1,5-a]pyrazine-3,5-dicarboxamide], for which the CC50 at 6 days in data set [1] was greater than 10 µM. In the data set with HBV, the EC50 was less than 1 µM.

As to `CN(C(=O)c1cnn2c1CN(C(=O)Nc1ccc(F)c(Cl)c1)CC2)C1(c2ncccn2)CC1` [Example 8, N5-(3-chloro-4-fluorophenyl)-N3-methyl-N3-[1-(pyrimidin-2-yl)cyclopropyl]-4H,5H,6H,7H-pyrazolo[1,5-a]pyrazine-3,5-dicarboxamide], the cytotoxic concentration (CC50) at 6 days in data set [1] was greater than 10 µM. Also, the EC50 in the data set on HBV was less than 1 µM.

Turning to `CN(C(=O)c1cnn2c1CN(C(=O)Nc1ccc(F)c(Cl)c1)CC2)C1(CO)CC1` [Example 9, N5-(3-chloro-4-fluorophenyl)-N3-[1-(hydroxymethyl)cyclopropyl]-N3-methyl-4H,5H,6H,7H-pyrazolo[1,5-a]pyrazine-3,5-dicarboxamide], in data set [1], the CC50 at 6 days is greater than 10 µM. The EC50 in the data set on HBV is less than 1 µM.

As for `O=C(Nc1ccc(F)c(Cl)c1)N1CCn2ncc(C(=O)N(CCO)C3(CO)CC3)c2C1` [Example 10, N5-(3-chloro-4-fluorophenyl)-N3-(2-hydroxyethyl)-N3-[1-(hydroxymethyl)cyclopropyl]-4H,5H,6H,7H-pyrazol [1,5-a]pyrazine-3,5-dicarboxamide], the 50% cytotoxic concentration (CC50) at 6 days in data set [1] was greater than 10 µM. Moreover, the EC50 with HBV was less than 1 µM.

Turning to `O=C(Nc1ccc(F)c(Cl)c1)N1CCn2ncc(C(=O)N3CCCOCC34CC4)c2C1` [Example 11, N-(3-chloro-4-fluorophenyl) -3-{8-oxa-4-azaspiro[2.6]nonane-4-carbonyl}-4H,5H,6H,7H-pyrazolo[1,5-a]pyrazine-5-carboxamide], in data set [1], the half-maximal cytotoxic concentration (CC50) at 6 days is greater than 10 µM. Further, in the data set on HBV, the EC50 is less than 1 µM.

As for `O=C(Nc1ccc(F)c(Cl)c1)N1CCn2ncc(C(=O)N3CCOCCC34CC4)c2C1` [Example 12, N-(3-chloro-4-fluorophenyl)-3-{7-oxa-4-azaspiro[2.6]nonane-4-carbonyl}-4H,5H,6H,7H-pyrazolo[1,5-a]pyrazine-5-carboxamide], in data set [1], the CC50 at 6 days is greater than 10 µM. Moreover, the EC50 in the data set on HBV is less than 1 µM.

For `CN(C(=O)c1cnn2c1CN(C(=O)Nc1ccc(F)c(Cl)c1)CC2)C1(CNCC(F)(F)F)CC1` [Example 13, N5-(3-chloro-4-fluorophenyl)-N3-methyl-N3-(1-{[(2,2,2-trifluoroethyl)amino]methyl}cyclopropyl)-4H,5H,6H,7H-pyrazolo[1,5-a]pyrazine-3,5-dicarboxamide], in data set [1], the CC50 at 6 days was greater than 10 µM. Also, in the data set with HBV, the EC50 is less than 1 µM.

On to `CN(C(=O)c1cnn2c1CN(C(=O)Nc1ccc(F)c(Cl)c1)CC2)C1(CCOC(F)F)CCC1` [Example 14, N5-(3-chloro-4-fluorophenyl)-N3-{1-[2-(difluoromethoxy)ethyl]cyclobutyl}-N3-methyl-4H,5H,6H,7H-pyrazolo[1,5-a]pyrazine-3,5-dicarboxamide], for which, in data set [1], the 50% cytotoxic concentration (CC50) at 6 days is greater than 10 µM. For the same compound, the EC50 in the data set with HBV is less than 1 µM.

Turning to `CN(C(=O)c1cnn2c1CN(C(=O)Nc1ccc(F)c(Cl)c1)CC2)C1(CCOC(F)F)CCCC1` [Example 15, N5-(3-chloro-4-fluorophenyl) -N3-{1-[2-(difluoromethoxy)ethyl]cyclopentyl}-N3-methyl-4H,5H,6H,7H -pyrazolo [1,5-a]pyrazine-3,5-dicarboxamide], in data set [1], the CC50 at 6 days was greater than 10 µM. Moreover, the EC50 with HBV was less than 1 µM.

`CN(C(=O)c1cnn2c1CN(C(=O)Nc1ccc(F)c(Cl)c1)CC2)C1(CCOC(F)F)CCOCC1` [Example 16, N5-(3-chloro-4-fluorophenyl)-N3-{4-[2-(difluoromethoxy)ethyl]oxan-4-yl}-N3-methyl-4H,5H,6H,7H-pyrazolo[1,5-a]pyrazine-3,5-dicarboxamide]: the 50% cytotoxic concentration (CC50) at 6 days in data set [1] is greater than 10 µM. For the same compound, in the data set with HBV, the EC50 was less than 1 µM.

`CC1Cn2ncc(C(=O)N(C)C3CC3)c2CN1C(=O)Nc1ccc(F)c(Cl)c1` (stereo not shown) [Example 17, N5-(3-chloro-4-fluorophenyl)-N3-cyclopropyl-N3,6-dimethyl-4H,5H,6H,7H -pyrazolo[1,5-a]pyrazine-3,5-dicarboxamide]: in data set [1], the CC50 at 6 days was greater than 10 µM. Further, the EC50 with HBV was less than 1 µM.
